In patent US20130230459A1, “RADIOLABELLED mGluR2 PET LIGANDS” (Janssen Pharmaceuticals, Inc., priority 2010, published 2013):
Where “and” joins values, the source holds several entries; their conditions need not be identical. Identical values can stand only once. Values belong to the molecule of their own block, whether it stands above or below them.

Test: Biodistribution studies of 11C tracers
Type: in vivo, Wistar rats
Details: for SUV Blood / SUV Cerebellum / SUV Cerebrum total / SUV Cortex / SUV Hippocampus / SUV Striatum: normalized for body weight; for % ID present in the carcass: at all time points examined
Procedure: Biodistribution studies were carried out in healthy male Wistar rats (body weight 200-450 g) at 2 min, 30 min and 60 min post injection (p.i.) (n=3/time point). Rats were injected with about 11 MBq (2 min, 30 min analysis) or 22 MBq (60 min analysis) of the tracer via tail vein under anesthesia (2.5% isoflurane in O2 at 1 L/min flow rate) and sacrificed by decapitation at above specified time points. Blood and major organs were collected in tared tubes and weighed. The radioactivity in blood, organs and other body parts was measured using an automated gamma counter. The distribution of radioactivity in different parts of the body at different time points p.i. of the tracer was calculated and expressed as percentage of injected dose (% ID), and as percentage of injected dose per gram tissue (% ID/g) for the selected organs. % ID is calculated as cpm in organ/total cpm recovered. For calculation of total radioactivity in blood, blood mass was assumed to be 7% of the body mass.

SMILES: [11CH3]Oc1c(F)ccc(F)c1C1CCN(c2ccn3c(CC4CC4)nnc3c2C(F)(F)F)CC1 [[^11C]B-3, 3-(cyclopropylmethyl)-7-[4-[3,6-difluoro-2-[^11C]methoxyphenyl]-1-piperidinyl]-8-(trifluoromethyl)-1,2,4-triazolo[4,3-a]pyridine]
% ID Blood (2 min p.i.): 8.5 % ID and 8.5 ± 1.9 % ID
% ID Carcass (2 min p.i.): 36.0 ± 0.7 % ID
% ID Cerebellum (2 min p.i.): 0.17 % ID and 0.165 ± 0.009 % ID
% ID Cerebrum total (2 min p.i.): 0.54 % ID and 0.536 ± 0.048 % ID
% ID Cortex (2 min p.i.): 0.062 ± 0.009 % ID
% ID Heart (2 min p.i.): 4.8 ± 0.4 % ID
% ID Hippocampus (2 min p.i.): 0.017 ± 0.002 % ID
% ID Intestines (2 min p.i.): 9.4 ± 0.8 % ID
% ID Kidneys (2 min p.i.): 8.8 ± 0.7 % ID
% ID Liver (2 min p.i.): 28.7 ± 2.1 % ID
% ID Lungs (2 min p.i.): 3.7 ± 1.7 % ID
% ID Rest of cerebrum (2 min p.i.): 0.457 ± 0.050 % ID
% ID Spleen + Pancreas (2 min p.i.): 2.0 ± 0.1 % ID
% ID Stomach (2 min p.i.): 1.5 ± 0.4 % ID
% ID Striatum (2 min p.i.): 0.028 ± 0.002 % ID
% ID Urine (2 min p.i.): 0.1 ± 0.0 % ID
Total brain uptake (2 min p.i.): 0.75 % ID and 0.75 ± 0.0 % ID
SUV Blood (2 min p.i.): 1.20 ± 0.03
SUV Cerebellum (2 min p.i.): 1.54 and 1.54 ± 0.01
SUV Cerebrum total (2 min p.i.): 1.09 ± 0.01
SUV Cortex (2 min p.i.): 1.03 ± 0.00
SUV Hippocampus (2 min p.i.): 0.85 ± 0.01
SUV Striatum (2 min p.i.): 0.99 ± 0.00
% ID Blood (30 min p.i.): 2.6 ± 0.7 % ID
% ID Carcass (30 min p.i.): 46.7 ± 7.8 % ID
% ID Cerebellum (30 min p.i.): 0.142 ± 0.042 % ID
% ID Cerebrum total (30 min p.i.): 0.489 ± 0.121 % ID
% ID Cortex (30 min p.i.): 0.071 ± 0.031 % ID
% ID Heart (30 min p.i.): 1.7 ± 0.7 % ID
% ID Hippocampus (30 min p.i.): 0.019 ± 0.006 % ID
% ID Intestines (30 min p.i.): 8.9 ± 1.4 % ID
% ID Kidneys (30 min p.i.): 3.4 ± 1.0 % ID
% ID Liver (30 min p.i.): 31.3 ± 9.7 % ID
% ID Lungs (30 min p.i.): 0.5 ± 0.2 % ID
% ID Rest of cerebrum (30 min p.i.): 0.373 ± 0.084 % ID
% ID Spleen + Pancreas (30 min p.i.): 1.1 ± 0.3 % ID
% ID Stomach (30 min p.i.): 3.8 ± 1.4 % ID
% ID Striatum (30 min p.i.): 0.027 ± 0.007 % ID
% ID Urine (30 min p.i.): 0.5 ± 0.1 % ID
Total brain uptake (30 min p.i.): 0.64 ± 0.2 % ID
SUV Blood (30 min p.i.): 0.40 ± 0.01
SUV Cerebellum (30 min p.i.): 1.54 and 1.54 ± 0.04
SUV Cerebrum total (30 min p.i.): 1.11 ± 0.03
SUV Cortex (30 min p.i.): 1.00 ± 0.03
SUV Hippocampus (30 min p.i.): 0.84 ± 0.02
SUV Striatum (30 min p.i.): 1.15 ± 0.04
% ID Blood (60 min p.i.): 2.9 % ID and 2.9 ± 0.4 % ID
% ID Carcass (60 min p.i.): 44.2 ± 10.9 % ID
% ID Cerebellum (60 min p.i.): 0.142 ± 0.050 % ID
% ID Cerebrum total (60 min p.i.): 0.499 ± 0.168 % ID
% ID Cortex (60 min p.i.): 0.069 ± 0.027 % ID
% ID Heart (60 min p.i.): 1.1 ± 0.6 % ID
% ID Hippocampus (60 min p.i.): 0.023 ± 0.011 % ID
% ID Intestines (60 min p.i.): 14.8 ± 1.7 % ID
% ID Kidneys (60 min p.i.): 2.4 ± 0.9 % ID
% ID Liver (60 min p.i.): 23.6 ± 12.9 % ID
% ID Lungs (60 min p.i.): 0.7 ± 0.3 % ID
% ID Rest of cerebrum (60 min p.i.): 0.371 ± 0.119 % ID
% ID Spleen + Pancreas (60 min p.i.): 0.9 ± 0.3 % ID
% ID Stomach (60 min p.i.): 9.6 ± 2.2 % ID
% ID Striatum (60 min p.i.): 0.036 ± 0.014 % ID
% ID Urine (60 min p.i.): 0.4 ± 0.1 % ID
% ID present in liver and intestines (60 min p.i.): 38.4 % ID
% ID present in the urinary system (60 min p.i.): 2.8 % ID
Total brain uptake (60 min p.i.): 0.66 ± 0.2 % ID
SUV Blood (60 min p.i.): 0.40 ± 0.01
SUV Cerebellum (60 min p.i.): 1.84 ± 0.07
SUV Cerebrum total (60 min p.i.): 1.38 ± 0.05
SUV Cortex (60 min p.i.): 1.13 ± 0.04
SUV Hippocampus (60 min p.i.): 1.11 ± 0.04
SUV Striatum (60 min p.i.): 1.76 ± 0.07
% ID present in the carcass: ~42 % ID

% ID Blood (2 min p.i.): 6.5 % ID and 6.5 ± 0.9 % ID
% ID Carcass (2 min p.i.): 43.5 ± 1.4 % ID
% ID Cerebellum (2 min p.i.): 0.17 % ID and 0.170 ± 0.012 % ID
% ID Cerebrum total (2 min p.i.): 0.45 % ID and 0.446 ± 0.073 % ID
% ID Cortex (2 min p.i.): 0.068 ± 0.015 % ID
% ID Heart (2 min p.i.): 4.1 ± 0.1 % ID
% ID Hippocampus (2 min p.i.): 0.019 ± 0.000 % ID
% ID Intestines (2 min p.i.): 7.6 ± 0.5 % ID
% ID Kidneys (2 min p.i.): 6.8 ± 0.7 % ID
% ID Liver (2 min p.i.): 30.2 ± 0.9 % ID
% ID Lungs (2 min p.i.): 1.8 ± 0.5 % ID
% ID Rest of cerebrum (2 min p.i.): 0.359 ± 0.086 % ID
% ID Spleen + Pancreas (2 min p.i.): 1.4 ± 0.1 % ID
% ID Stomach (2 min p.i.): 1.3 ± 0.2 % ID
% ID Striatum (2 min p.i.): 0.022 ± 0.002 % ID
% ID Urine (2 min p.i.): 0.1 ± 0.0 % ID
Total brain uptake (2 min p.i.): 0.65 % ID and 0.65 ± 0.1 % ID
% ID Blood (30 min p.i.): 2.9 ± 0.1 % ID
% ID Carcass (30 min p.i.): 61.8 ± 2.1 % ID
% ID Cerebellum (30 min p.i.): 0.201 ± 0.016 % ID
% ID Cerebrum total (30 min p.i.): 0.723 ± 0.103 % ID
% ID Cortex (30 min p.i.): 0.078 ± 0.020 % ID
% ID Heart (30 min p.i.): 1.7 ± 0.2 % ID
% ID Hippocampus (30 min p.i.): 0.028 ± 0.006 % ID
% ID Intestines (30 min p.i.): 9.9 ± 1.4 % ID
% ID Kidneys (30 min p.i.): 3.0 ± 0.4 % ID
% ID Liver (30 min p.i.): 17.0 ± 1.1 % ID
% ID Lungs (30 min p.i.): 0.8 ± 0.1 % ID
% ID Rest of cerebrum (30 min p.i.): 0.580 ± 0.081 % ID
% ID Spleen + Pancreas (30 min p.i.): 1.0 ± 0.2 % ID
% ID Stomach (30 min p.i.): 2.3 ± 0.5 % ID
% ID Striatum (30 min p.i.): 0.037 ± 0.005 % ID
% ID Urine (30 min p.i.): 0.3 ± 0.1 % ID
Total brain uptake (30 min p.i.): 0.95 ± 0.1 % ID
% ID Blood (60 min p.i.): 3.6 % ID and 3.6 ± 0.2 % ID
% ID Carcass (60 min p.i.): 57.8 ± 1.9 % ID
% ID Cerebellum (60 min p.i.): 0.155 ± 0.024 % ID
% ID Cerebrum total (60 min p.i.): 0.597 ± 0.062 % ID
% ID Cortex (60 min p.i.): 0.074 ± 0.021 % ID
% ID Heart (60 min p.i.): 1.0 ± 0.1 % ID
% ID Hippocampus (60 min p.i.): 0.024 ± 0.003 % ID
% ID Intestines (60 min p.i.): 12.0 ± 1.1 % ID
% ID Kidneys (60 min p.i.): 1.9 ± 0.3 % ID
% ID Liver (60 min p.i.): 18.6 ± 1.0 % ID
% ID Lungs (60 min p.i.): 0.6 ± 0.1 % ID
% ID Rest of cerebrum (60 min p.i.): 0.468 ± 0.054 % ID
% ID Spleen + Pancreas (60 min p.i.): 0.8 ± 0.0 % ID
% ID Stomach (60 min p.i.): 4.3 ± 1.8 % ID
% ID Striatum (60 min p.i.): 0.031 ± 0.003 % ID
% ID Urine (60 min p.i.): 0.6 ± 0.1 % ID
% ID present in liver and intestines (60 min p.i.): 30.6 % ID
% ID present in the urinary system (60 min p.i.): 2.5 % ID
Total brain uptake (60 min p.i.): 0.76 ± 0.1 % ID
% ID present in the carcass: ~54 % ID
SMILES: [11CH3]Oc1cccc(F)c1C1CCN(c2ccn3c(CC4CC4)nnc3c2Cl)CC1 [[^11C]B-6, 8-chloro-3-(cyclopropylmethyl)-7-[4-[2-fluoro-6-[^11C]methoxyphenyl]-1-piperidinyl]-1,2,4-triazolo[4,3-a]pyridine]
SUV Blood (2 min p.i.): 0.90 ± 0.01
SUV Cerebellum (2 min p.i.): 1.62 ± 0.00
SUV Cerebrum total (2 min p.i.): 1.00 ± 0.02
SUV Cortex (2 min p.i.): 1.04 ± 0.00
SUV Hippocampus (2 min p.i.): 0.86 ± 0.01
SUV Striatum (2 min p.i.): 1.01 ± 0.01
SUV Blood (30 min p.i.): 0.40 ± 0.00
SUV Cerebellum (30 min p.i.): 2.28 and 2.28 ± 0.01
SUV Cerebrum total (30 min p.i.): 1.66 ± 0.02
SUV Cortex (30 min p.i.): 1.47 ± 0.03
SUV Hippocampus (30 min p.i.): 1.36 ± 0.01
SUV Striatum (30 min p.i.): 1.70 ± 0.01
SUV Blood (60 min p.i.): 0.50 ± 0.00
SUV Cerebellum (60 min p.i.): 1.57 ± 0.01
SUV Cerebrum total (60 min p.i.): 1.24 ± 0.01
SUV Cortex (60 min p.i.): 1.01 ± 0.01
SUV Hippocampus (60 min p.i.): 1.02 ± 0.01
SUV Striatum (60 min p.i.): 1.46 ± 0.01
